Measurements published in patent publication US11485731B2, “Compounds and methods useful in the treatment of a PRMT5-mediated disorder” (ARGONAUT THERAPEUTICS LIMITED, priority 2017, dated 2022).

Each compound was assayed against human PRMT5/MEP50 (Homo sapiens (Human), UniProt O14744) (assay: PRMT5 chemiluminescent assay). Settings: human PRMT5/MEP50 expressed in HEK293 cells; biotinylated histone peptides; Histone H4 monomethyl R3 antibody; chemiluminescent readout.
Format: biochemical
Method: A PRMT5 chemiluminescent assay was used to measure the IC50 activity of PRMT5 of the compounds of Examples 1A to 7 above. Biotinylated histone peptides were synthesized and attached to 384-well plates. Compound serial dilutions were performed and added to the assay plate. Histone H4 monomethyl R3 antibody was obtained from Abcam. A master mix for each well was prepared and human PRMT5/MEP50 (expressed in HEK293 cells) diluted in assay buffer to a concentration of 5 ng/μL. The reaction was incubated and slowly rotated for 60 minutes at the point of PRMT5/MEP50 addition. The supernatant from the wells was removed and blocking buffer was added to each well and rotated for 10 minutes. The primary antibody was diluted and added to every well for 60 minutes, before it was removed and the wells washed. The horse raddish peroxidase (HRP)-coupled secondary antibody was diluted and added to each well with an incubation time of 30 minutes. The HRP chemiluminescent substrate was added to every well. The plate was read on a Flourstar Omega BMG Labtech instrument (Ortenberg, Germany) and the analysis of IC50 was performed using the Flourstar Omega BMG Labtech software.

human PRMT5/MEP50, sequence (O14744 whole entry): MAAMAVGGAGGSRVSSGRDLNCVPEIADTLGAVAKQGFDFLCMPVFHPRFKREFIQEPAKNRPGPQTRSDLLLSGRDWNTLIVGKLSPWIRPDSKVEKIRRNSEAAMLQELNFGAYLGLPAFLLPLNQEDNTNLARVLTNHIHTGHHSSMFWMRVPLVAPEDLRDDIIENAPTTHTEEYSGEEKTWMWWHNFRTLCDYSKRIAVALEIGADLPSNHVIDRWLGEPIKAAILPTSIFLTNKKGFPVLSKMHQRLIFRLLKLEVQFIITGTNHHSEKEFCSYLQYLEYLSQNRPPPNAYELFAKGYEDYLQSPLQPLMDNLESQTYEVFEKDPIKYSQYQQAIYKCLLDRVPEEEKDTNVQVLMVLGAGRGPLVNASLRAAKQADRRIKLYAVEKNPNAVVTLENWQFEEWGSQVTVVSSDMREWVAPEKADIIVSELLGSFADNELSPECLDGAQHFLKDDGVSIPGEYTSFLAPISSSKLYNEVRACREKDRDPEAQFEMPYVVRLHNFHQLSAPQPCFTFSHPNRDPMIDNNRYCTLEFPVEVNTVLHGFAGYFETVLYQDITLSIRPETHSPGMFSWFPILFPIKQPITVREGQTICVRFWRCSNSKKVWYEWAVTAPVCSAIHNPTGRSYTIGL
human PRMT5/MEP50, sequence (Q9BQA1 whole entry partner): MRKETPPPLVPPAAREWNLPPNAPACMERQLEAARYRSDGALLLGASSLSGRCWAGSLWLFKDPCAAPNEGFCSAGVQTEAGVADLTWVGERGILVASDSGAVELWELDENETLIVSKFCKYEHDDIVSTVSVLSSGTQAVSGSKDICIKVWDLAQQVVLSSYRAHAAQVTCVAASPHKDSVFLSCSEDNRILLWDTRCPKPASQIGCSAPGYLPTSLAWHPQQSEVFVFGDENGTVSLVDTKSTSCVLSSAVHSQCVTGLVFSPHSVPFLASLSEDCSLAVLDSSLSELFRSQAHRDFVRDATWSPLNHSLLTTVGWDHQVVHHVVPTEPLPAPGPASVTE

`O=C(NC[C@H](O)CN1CCc2ccccc2C1)N1CCCC(N2CCCSCC2)C1` (stereo partly drawn) [Example 1CB, N-((S)-3-(3,4-dihydroisoquinolin-2(1H)-yl)-2-hydroxypropyl)-3-(1,4-thiazepan-4-yl)piperidine-1-carboxamide] and `O=C(NC[C@H](O)CN1CCc2ccccc2C1)N1CCC(N2CCCSCC2)C1` (stereo partly drawn) [Example 1CF, N-((S)-3-(3,4-dihydroisoquinolin-2(1H)-yl)-2-hydroxypropyl)-3-(1,4-thiazepan-4-yl)pyrrolidine-1-carboxamide] are within 1.5-fold of each other in IC50: 337 nM for the first, 376 nM for the second.

Going from `O=C(NC[C@H](O)CN1CCc2ccccc2C1)N1CCCC(N2CCCOCC2)C1` (stereo partly drawn) [Example 1CC, N-((S)-3-(3,4-dihydroisoquinolin-2(1H)-yl)-2-hydroxypropyl)-3-(1,4-oxazepan-4-yl)piperidine-1-carboxamide] to `O=C(NC[C@H](O)CN1CCc2ccccc2C1)N1CCC(N2CCOCC2)C1` (stereo partly drawn) [Example 1CD, N-((S)-3-(3,4-dihydroisoquinolin-2(1H)-yl)-2-hydroxypropyl)-3-morpholinopyrrolidine-1-carboxamide], the IC50 rises from 1640 nM to 12300 nM (7.5-fold). The first is the more potent here.

Going from `O=C(NC[C@H](O)CN1CCc2ccccc2C1)N1CCC(N2CCSCC2)C1` (stereo partly drawn) [Example 1CE, N-((S)-3-(3,4-dihydroisoquinolin-2(1H)-yl)-2-hydroxypropyl)-3-thiomorpholinopyrrolidine-1-carboxamide] to `O=C(NCC(O)CN1CCc2ccccc2C1)N1CCSCC1` (stereo not drawn) [Example 1U, N-(3-(3,4-dihydroisoquinolin-2(1H)-yl)-2-hydroxypropyl)thiomorpholine-4-carboxamide], the IC50 falls from 3100 nM to 896 nM (3.5-fold).

Compared with `O=C(NC[C@H](O)CN1CCc2ccccc2C1)N1CCS(=O)(=O)C(c2ccccc2)C1` (stereo partly drawn) [Example 1CG, N-((S)-3-(3,4-dihydroisoquinolin-2(1H)-yl)-2-hydroxypropyl)-2-phenylthiomorpholine-4-carboxamide 1,1-dioxide], `O=C(NC[C@H](O)CN1CCc2ccccc2C1)N1CC[C@@H](c2ccccc2)C1` [Example 1CI, (S)-N-((S)-3-(3,4-dihydroisoquinolin-2(1H)-yl)-2-hydroxypropyl)-3-phenylpyrrolidine-1-carboxamide] is 16-fold lower in IC50: 422 nM for the first, 27 nM for the second. The second is the more potent here.

Compared with `O=C(NC[C@H](O)CN1CCc2ccccc2C1)N1CCCC(N2CCN(Cc3ccccc3)CC2)C1` (stereo partly drawn) [Example 1CH, 3-(4-benzylpiperazin-1-yl)-N-((S)-3-(3,4-dihydroisoquinolin-2(1H)-yl)-2-hydroxypropyl)piperidine-1-carboxamide], `O=C(NCC(O)CN1CCc2ccccc2C1)N1CCCN(Cc2ccccc2)CC1` (stereo not drawn) [Example 1T, 4-benzyl-N-(3-(3,4-dihydroisoquinolin-2(1H)-yl)-2-hydroxypropyl)-1,4-diazepane-1-carboxamide] is 48-fold lower in IC50: 1920 nM for the first, 40 nM for the second.

Going from `O=C(NC[C@H](O)CN1CCc2ccccc2C1)N1CC[C@H](c2ccccc2)C1` [Example 1CJ, (R)-N-((S)-3-(3,4-dihydroisoquinolin-2(1H)-yl)-2-hydroxypropyl)-3-phenylpyrrolidine-1-carboxamide] to `O=C(NCC(O)CN1CCc2ccccc2C1)N1CCCC(c2ccccc2)C1` (stereo not drawn) [Example 1E, N-[2-hydroxy-3-(1,2,3,4-tetrahydroisoquinolin-2-yl)propyl]-3-phenylpiperidine-1-carboxamide], the IC50 falls from 58 nM to 8 nM (7.2-fold). The second is the more potent here.

Compared with `O=C(NCC(O)CN1CCc2ccccc2C1)N1CCCC(O)C1` (stereo not drawn) [Example 1CK, N-(3-(3,4-dihydroisoquinolin-2(1H)-yl)-2-hydroxypropyl)-3-hydroxypiperidine-1-carboxamide], `O=C(NCC(O)CN1CCc2ccccc2C1)N1CCCC1` (stereo not drawn) [Example 1M, N-[2-hydroxy-3-(1,2,3,4-tetrahydroisoquinolin-2-yl)propyl]pyrrolidine-1-carboxamide] is 21-fold higher in IC50: 329 nM for the first, 6870 nM for the second.

Compared with `CN1CCCN(C(=O)NCC(O)CN2CCc3ccccc3C2)CC1` (stereo not drawn) [Example 1CL, N-(3-(3,4-dihydroisoquinolin-2(1H)-yl)-2-hydroxypropyl)-4-methyl-1,4-diazepane-1-carboxamide], `CC(=O)N1CCCN(C(=O)NCC(O)CN2CCc3ccccc3C2)CC1` (stereo not drawn) [Example 1CM, 4-acetyl-N-(3-(3,4-dihydroisoquinolin-2(1H)-yl)-2-hydroxypropyl)-1,4-diazepane-1-carboxamide] is 3.5-fold lower in IC50: 436 nM for the first, 125 nM for the second.

Going from `O=C(NCC(O)CN1CCc2ccccc2C1)N1CCCC(c2ccccc2)CC1` (stereo not drawn) [Example 1CN, N-(3-(3,4-dihydroisoquinolin-2(1H)-yl)-2-hydroxypropyl)-4-phenylazepane-1-carboxamide] to `O=C(NCC(O)CN1CCc2ccccc2C1)N1CCC(c2ccccc2)CC1` (stereo not drawn) [Example 1F, N-[2-hydroxy-3-(1,2,3,4-tetrahydroisoquinolin-2-yl)propyl]-4-phenylpiperidine-1-carboxamide], the IC50 falls from 1100 nM to 457 nM (2.4-fold). The second is the more potent here.

Compared with `O=C(NCC(O)CN1CCc2ccccc2C1)N1CCCCC(c2ccccc2)C1` (stereo not drawn) [Example 1CO, N-(3-(3,4-dihydroisoquinolin-2(1H)-yl)-2-hydroxypropyl)-3-phenylazepane-1-carboxamide], `O=C(NCC(O)CN1CCc2ccccc2C1)N1CCCC(Oc2ccccc2)C1` (stereo not drawn) [Example 1H, N-[2-hydroxy-3-(1,2,3,4-tetrahydroisoquinolin-2-yl)propyl]-3-phenoxypiperidine-1-carboxamide] is 16-fold higher in IC50: 17 nM for the first, 267 nM for the second. The first is the more potent here.

Compared with `O=C(NCC(O)CN1CCc2ccccc2C1)N1CCN(Cc2ccccc2)CC1` (stereo not drawn) [Example 1D, 4-benzyl-N-[2-hydroxy-3-(1,2,3,4-tetrahydroisoquinolin-2-yl)propyl]piperazine-1-carboxamide], `O=C(NCC(O)CN1CCc2ccccc2C1)N1CCC(Cc2ccccc2)CC1` (stereo not drawn) [Example 1Q, 4-benzyl-N-(3-(3,4-dihydroisoquinolin-2(1H)-yl)-2-hydroxypropyl)piperidine-1-carboxamide] is 6.8-fold lower in IC50: 1870 nM for the first, 276 nM for the second. The second is the more potent here.

First: O=C(NCC(O)CN1CCc2ccccc2C1)N1CCC(Oc2ccccc2)CC1 (stereo not drawn) [Example 1G, N-[2-hydroxy-3-(1,2,3,4-tetrahydroisoquinolin-2-yl)propyl]-4-phenoxypiperidine-1-carboxamide]
Second: O=C(NCC(O)CN1CCc2ccccc2C1)N1CCCN(c2ccccc2)CC1 (stereo not drawn) [Example 1S, N-(3-(3,4-dihydroisoquinolin-2(1H)-yl)-2-hydroxypropyl)-4-phenyl-1,4-diazepane-1-carboxamide]
The IC50 of the first is 6-fold higher: 568 nM for the first, 95 nM for the second.

First: O=C(NCC(O)CN1CCc2ccccc2C1)N1CCc2ccccc2C1 (stereo not drawn) [Example 1I, N-[2-hydroxy-3-(1,2,3,4-tetrahydroisoquinolin-2-yl)propyl]-1,2,3,4-tetrahydroisoquinoline-2-carboxamide]
Second: O=C(NCC(O)CN1CCc2ccccc2C1)N1CCCCc2ccccc21 (stereo not drawn) [Example 1J, N-[2-hydroxy-3-(1,2,3,4-tetrahydroisoquinolin-2-yl)propyl]-2,3,4,5-tetrahydro-1H-1-benzazepine-1-carboxamide]
The IC50 of the first is 1.5-fold lower: 208 nM for the first, 320 nM for the second.

`O=C(NCC(O)CN1CCc2ccccc2C1)N1CCCCC1` (stereo not drawn) [Example 1L, N-[2-hydroxy-3-(1,2,3,4-tetrahydroisoquinolin-2-yl)propyl]piperidine-1-carboxamide] and `O=C(NCC(O)CN1CCc2ccccc2C1)N1CCCCCC1` (stereo not drawn) [Example 1N, N-[2-hydroxy-3-(1,2,3,4-tetrahydroisoquinolin-2-yl)propyl]azepane-1-carboxamide] are within 1.5-fold of each other in IC50: 1640 nM for the first, 2380 nM for the second.

Going from `O=C(NCC(O)CN1CCc2ccccc2C1)N1CCC(C(=O)N2CCOCC2)CC1` (stereo not drawn) [Example 1O, N-(3-(3,4-dihydroisoquinolin-2(1H)-yl)-2-hydroxypropyl)-4-(morpholine-4-carbonyl)piperidine-1-carboxamide] to `O=C(NCC(O)CN1CCc2ccccc2C1)N1CC(C(=O)N2CCOCC2)C1` (stereo not drawn) [Example 1W, N-(3-(3,4-dihydroisoquinolin-2(1H)-yl)-2-hydroxypropyl)-3-(morpholine-4-carbonyl)azetidine-1-carboxamide], the IC50 rises from 51 nM to 7390 nM (140-fold).

`O=C(NCC(O)CN1CCc2ccccc2C1)N1CCCC(Nc2ccncc2)C1` (stereo not drawn) [Example 1P, N-(3-(3,4-dihydroisoquinolin-2(1H)-yl)-2-hydroxypropyl)-3-(pyridin-4-ylamino)piperidine-1-carboxamide] and `O=C(NCC(O)CN1CCc2sccc2C1)N1CCCc2ccccc21` (stereo not drawn) [Example 1Y, N-(3-(6,7-dihydrothieno[3,2-c]pyridin-5(4H)-yl)-2-hydroxypropyl)-3,4-dihydroquinoline-1(2H)-carboxamide] are within 1.5-fold of each other in IC50: 221 nM for the first, 236 nM for the second.

Going from `O=C(NCC(O)CN1CCc2ccccc2C1)N1CCC(C(=O)N2C3CCC2COC3)CC1` (stereo not drawn) [Example 1R, 4-(3-oxa-8-azabicyclo[3.2.1]octane-8-carbonyl)-N-(3-(3,4-dihydroisoquinolin-2(1H)-yl)-2-hydroxypropyl)piperidine-1-carboxamide] to `O=C(NCC(O)CN1CCc2ccccc2C1)N1CC(C(=O)N2C3CCC2COC3)C1` (stereo not drawn) [Example 1X, 3-(3-oxa-8-azabicyclo[3.2.1]octane-8-carbonyl)-N-(3-(3,4-dihydroisoquinolin-2(1H)-yl)-2-hydroxypropyl)azetidine-1-carboxamide], the IC50 rises from 11 nM to 376 nM (34-fold).

First: CN(C)C(=O)C1CN(C(=O)NCC(O)CN2CCc3ccccc3C2)C1 (stereo not drawn) [Example 1V, N^1-(3-(3,4-dihydroisoquinolin-2(1H)-yl)-2-hydroxypropyl)-N^3,N^3-dimethylazetidine-1,3-dicarboxamide]
Second: O=C(NCC(O)CN1CCc2ccsc2C1)N1CCCc2ccccc21 (stereo not drawn) [Example 1Z, N-(3-(4,7-dihydrothieno[2,3-c]pyridin-6(5H)-yl)-2-hydroxypropyl)-3,4-dihydroquinoline-1(2H)-carboxamide]
The IC50 of the first is 13-fold higher: 8540 nM for the first, 639 nM for the second.
